US8048455B2, “Treatment of cancer and inflammatory disorder” (Academia Sinica, priority 2006, dated 2011)

Legend:
COX-2 protein = COX-2 protein expression (immunoblotting) in LPS-stimulated macrophages; assay type: cell-based, murine; conditions: LPS 18 h
Method: (§1) Total cellular proteins and the specific cytosolic and nuclear proteins were prepared using methods described in Chiang et al. Protein content was measured by the Bradford method (Bio-Rad). Protein was resolved by 5-20% gradient SDS-PAGE and subjected to immunoblotting using enhanced chemiluminescence reagents (ECL, Amersham). Monoclonal antibodies against PARP (Transduction Laboratories, Lexington, Ky.), GA3PDH (Biogenesis, Poole, UK), α-tubulin (Oncogene Science, Cambridge, UK), COX-2 (Cayman Chemical), phospho-(Ser32)-IκBα, phospho-IKKα(Ser180)/IKKβ(Ser181) (New England Biolabs, Beverly, Mass.), iNOS, IκBα, IKKα/β or NF-κB p65 (RelA) (Santa Cruz Biotechnology, Santa Cruz, Calif.) were used.
It was further examined whether dLGG affects COX-2 mRNA and protein expression using RT-PCR and immunoblotting. Cells were treated with dLGG for 1 hour, then LPS (1 μg/mL) was added for 18 hours. Total cellular protein (20 μg) was subjected to immunoblotting. Quantification of COX-2 mRNA and protein expression involved normalization to GA3PDH by densitometry.

NF-κB (p65) = experiment: NF-κB p65 nuclear translocation in LPS-stimulated RAW 264.7 cells (immunoblotting, confocal microscopy); assay type: cell-based, murine
Method: as §1
RAW 264.7 cells were seeded in chamber slides for 1 hour, and then treated with DMSO or dLGG (75 μg/mL) for 1 hour, with or without LPS stimulation for an additional 90 minutes. The cells were fixed, permeabilized with 0.1% Triton X-100, and stained with Hoechst 33342 (DNA marker), FITC-labeled anti-α-tubulin Ab (cytoplasm marker), or rabbit anti-p65 antibody visualized with goat anti-rabbit Rhodamine Red-labeled secondary antibody for analysis with a Zeiss LSM 510 META confocal laser-scanning microscope.
The distribution of NF-κB (p65) in nucleus and cytoplasm was determined using immunoblotting. Cells were treated with various concentrations of dLGG for 1 hour and then stimulated with LPS (1 μg/mL) for another 90 min. Nuclear and cytosolic fractions were immunoblotted with p65 NF-κB antibody. A slight increase in nuclear p65 protein (1.5-fold) was detected when macrophages were treated with a low concentration of dLGG (5 μg/mL), compared to LPS alone (1.0). With higher concentrations of dLGG (25 to 75 μg/mL), the level of nuclear p65 decreased accordingly. Cytoplasmic levels of NF-κB (p65) were not affected by dLGG treatment of LPS-stimulated macrophages.
The effect of dLGG on NF-κB (p65) nuclear translocation was also examined by confocal microscopy. Macrophages were treated with 0.4% DMSO, or LPS (1 μg/mL) with or without dLGG (75 μg/mL), and stained with fluorescence-labeled antibodies against p65 (red). To distinguish nucleus from cytosol, cells were also stained with DNA-specific Hoechst 33342 (blue) and with anti-α-tubulin antibody (green). In vehicle-treated cells, p65 protein was mainly found in the cytosol of test cells.

NF-κB•DNA complex = experiment: Electrophoretic mobility shift assay of NF-κB binding to consensus DNA in LPS-stimulated RAW 264.7 cells; assay type: cell-based, murine; conditions: for NF-κB•DNA complex, of LPS alone: 90 minutes; for NF-κB•DNA complex level: 75 μg/mL
Method: EMSA was performed with the […]™ Chemiluminescent EMSA kit (Pierce Biotechnology, Rockford, Ill.). […] The DNA-protein complexes were subjected to 5-10% gradient PAGE. Competition assay with unlabeled oligonucleotide (cold DNA) was performed in parallel. […]

B16 melanoma = experiment: In vivo inhibition of B16 melanoma growth in C57BL/6J mice; conditions: mouse, in vivo, ip
Method: The chemopreventive effect of the CREa8 subfraction was evaluated on tumor growth using the B16 melanoma C57BL/6J mouse system. Six-week-old animals (4 groups of mice, 5 in each group) were used in this experiment. Group 1 mice (Sham control) were intraperitoneally (i.p.) injected with 20 μL of DMSO every 2 days throughout the experimental period, except 100 μL PBS was injected on day 0. Group 4 mice (Tumor control) were pre-treated with DMSO every 2 days, starting from day—14, for 2 weeks, inoculated with B16 tumor cells (1×10^6 cells/100 μL PBS) subcutaneously (s.c.) on the abdominal area on day 0, and then injected with DMSO every 2 days until day 21. Group 2 mice were i.p. pre-treated with CREa8 (10 mg/kg body weight per dose) every 2 days, starting from day—14, for 2 weeks, s.c. inoculated with B16 tumor cells on day 0, and then continuously treated with CREa8 (i.p.) every 2 days until day 21. Group 3 mice were similarly pre-treated with DMSO every 2 days for 2 weeks, inoculated with B16 tumor cells on day 0, and then treated with cisplatin (i.p.) every 2 days until day 21. The test mice were monitored daily, and body weights and tumor size (average of 2 dimensions) recorded every 2 days. At the end of the experiment (day 21), tumors were excised and weighed.
The cancer prevention efficacy of the dLGG-rich fraction (CREa8) was examined in vivo in 4 groups of mice according to the method described above. Cisplatin, a cancer chemotherapeutic, was used as a reference control.

COX-2 enzyme = molecular target: T1, COX-2 enzyme (Ovis aries, UniProt P79208); experiment: Cyclooxygenase-2 activity assay (chemiluminescent COX inhibitor screening kit); assay type: biochemical; conditions: COX-2 enzyme and substrates
T1 construct: purchased Cayman Chemical
T1 sequence (P79208 17-603): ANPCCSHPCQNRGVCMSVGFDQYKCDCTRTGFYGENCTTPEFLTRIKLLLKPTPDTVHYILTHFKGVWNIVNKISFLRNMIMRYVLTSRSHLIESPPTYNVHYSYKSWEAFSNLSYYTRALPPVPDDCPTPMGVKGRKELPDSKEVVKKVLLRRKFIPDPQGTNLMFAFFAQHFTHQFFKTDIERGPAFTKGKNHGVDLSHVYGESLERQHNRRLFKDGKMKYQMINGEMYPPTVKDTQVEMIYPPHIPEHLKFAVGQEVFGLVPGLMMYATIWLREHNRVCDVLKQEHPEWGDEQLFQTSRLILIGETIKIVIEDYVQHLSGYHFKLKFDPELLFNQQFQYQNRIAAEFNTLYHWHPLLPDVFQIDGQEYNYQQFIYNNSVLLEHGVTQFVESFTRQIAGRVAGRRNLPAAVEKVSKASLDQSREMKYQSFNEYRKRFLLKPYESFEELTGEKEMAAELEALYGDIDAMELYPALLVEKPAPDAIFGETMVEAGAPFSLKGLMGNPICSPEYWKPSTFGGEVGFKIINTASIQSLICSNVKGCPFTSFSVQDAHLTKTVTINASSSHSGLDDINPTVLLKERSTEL
Method: COX-2 inhibition was measured with the chemiluminescent COX inhibitor screening assay kit (Cayman Chemical, Ann Arbor, Mich.).
The above-mentioned test compounds were incubated with COX-2 enzyme and substrates before measuring the COX-2 activity.

Compound: CC/C=C\C/C=C\C/C=C\CCCCCCCC(=O)OC[C@H](CO[C@@H]1O[C@H](CO)[C@H](O)[C@H](O)[C@H]1O)OC(=O)CCCCCCC/C=C\C/C=C\C/C=C\CC [dLGG, 1,2-di-O-α-linolenoyl-3-O-β-galactopyranosyl-sn-glycerol]
- Suppression of LPS-induced COX-2 protein synthesis (COX-2 protein; 50 μg/mL): approximately 60%
- COX-2 protein level (COX-2 protein; 75 μg/mL): barely detectable
- Nuclear p65 protein compared to LPS alone (1.0) (NF-κB (p65); 5 μg/mL, LPS 90 min): 1.5 fold
- p65 nuclear translocation by confocal microscopy (NF-κB (p65); 75 μg/mL, LPS 1 μg/mL): drastically inhibited
- Level of nuclear p65 (NF-κB (p65); 25 to 75 μg/mL, LPS 90 min): decreased
- Cytoplasmic levels of NF-κB (p65) (NF-κB (p65); LPS-stimulated macrophages): not affected
- NF-κB•DNA complex, of LPS alone (NF-κB•DNA complex; 25 μg/mL): 77%
- NF-κB•DNA complex, of LPS alone (NF-κB•DNA complex; 50 μg/mL): 23%
- NF-κB•DNA complex level (NF-κB•DNA complex; LPS 60 min): 0.43 times that of LPS alone (1.0)
- NF-κB•DNA complex level (NF-κB•DNA complex; LPS 90 min): 0.30 times that of LPS alone (1.0)
- NF-κB•DNA complex level (NF-κB•DNA complex; LPS 120 min): 0.16 times that of LPS alone (1.0)
- NF-κB•DNA complex level (NF-κB•DNA complex; LPS 180 min): 0.01 times that of LPS alone (1.0)
- Inhibition of NF-κB•DNA complex formation (structure-activity study) (NF-κB•DNA complex; 100 μM, LPS 1 μg/mL, 90 min): almost completely inhibited
- Mortality or body weight loss on i.p. administration (B16 melanoma): without mortality or body weight loss
- IC50 (COX-2 enzyme): 5.35 µM
